Data set [1] has as its system DMS114 and SHP-77 human small cell lung cancer lines. The experiment in a line: Actual outcome of in vitro testing in both reference human SCLC lines. The data set is classed as cell-based. As for the experimental part: (§1) Briefly, cells were plated in plastic tissue culture plates and grown under standard conditions for each cell line, in carbon dioxide/oxygen atmosphere in plastic tissue culture plates, in the presence of COTI-2 or COTI-219 compounds at 35° C. for 3 days. Control cultures were treated with vehicle minus compound. Cells were counted after 3 days in culture and at a cell density of no more than 80%. The following cell lines, obtained from the National Cancer Institute, were tested: human SCLC cell lines DMS153, DMS114, SHP77; human NSCLC cell lines H226, A460, A560; human breast cancer cell lines T47D, MCF7; human colon cancer cell line HT29; and, human Leukemia cell lines K562, HL60.

Data set [2] has as its system SHP77. The experiment in a line: in vitro IC50 against cancer cell lines, SHP77. The data set is classed as cell-based. Conditions: Homo sapiens, 72 h; SHP77, SCLC, 3 days. How it is done: as §1
Data set [3] deals with DMS153. The experiment in a line: in vitro IC50 against cancer cell lines, DMS153. Conditions: Homo sapiens, DMS-153, 72 h; DMS153, SCLC, 3 days. The data set is classed as cell-based. How it is done: as §1
Data set [4] concerns T47D. The experiment in a line: in vitro IC50 against cancer cell lines, T47D. The data set is classed as cell-based. Conditions: Homo sapiens, 72 h, Breast Cancer, 3 days. How it is done: as §1
For data set [5], the system named is MCF7. The experiment in a line: in vitro IC50 against cancer cell lines, MCF7. The data set is classed as cell-based. Conditions: Homo sapiens, 72 h; MCF7, Breast Cancer, 3 days. As for the experimental part: as §1
Data set [6] concerns HT29. The experiment in a line: in vitro IC50 against cancer cell lines, HT29. The data set is classed as cell-based. Conditions: Homo sapiens, HT-29, 72 h; HT29, Colorectal Cancer, 3 days. As for the experimental part: as §1
For data set [7], the system named is K562. The experiment in a line: in vitro IC50 against cancer cell lines, K562. The data set is classed as cell-based. Conditions: Homo sapiens, 72 h; K562, Leukemia, 3 days. How it is done: as §1
Data set [8] relates to HL60. The experiment in a line: in vitro IC50 against cancer cell lines, HL60. Conditions: Homo sapiens, HL-60, 72 h; HL60, Leukemia, 3 days. The data set is classed as cell-based. As for the experimental part: as §1
Data set [9] relates to DMS153. The experiment in a line: Resistance testing over 5 generations, DMS153. The data set is classed as cell-based, human. Conditions: DMS153, 5 generations. How it is done: In order to evaluate the induction of resistance in vitro, compounds according to the invention were tested in head to head comparisons against conventional therapeutic agents Cisplatin® and Taxotere®. The compound designated COTI-4 (which is the subject of Applicant's co-pending U.S. provisional patent application entitled “Composition and Method for Treatment” filed Dec. 26, 2007) was also tested. The structure for COTI-4 is:
IC50 values were obtained using methods known to persons skilled in the art with two different human SCLC cell lines (DMS153 and SHP77) obtained from the National Cancer Institute. […] The procedure was repeated for a total of 5 generations. Emerging resistance was identified by increasing IC50 values in successive generations.

Data set [10] deals with Standard lab mice. The experiment in a line: Escalating dose acute toxicity study in mice. Conditions: 4, 8, 16 mg/kg alternate day IP, 28 days. The source says: Mice were given alternate day IP injections for 28 days. […] Blood and tissue samples were harvested for histopathology.
The test system of data set [11] is H1975. The experiment in a line: CellTiter-Blue growth inhibition, single agents and combinations, H1975. Type of data set: cell-based. Conditions: Homo sapiens, read-out: Mean IC50, single agent. As for the experimental part:
(§2) The stock concentration was further diluted to 1 mM and added to a drug plate. […] Following dilution, 2 μl of test agent was transferred to the corresponding wells of a cell-containing 96-well plate with 198 μl of growth media. Tarceva® (erlotinib) was supplied by LC Labs (Woburn, Mass.).
Viable cell numbers were quantified by the CellTiter-Blue® cell viability assay, which measures the conversion of the indicator dye (resazurin) to resorufin, an indicator of cell viability. Experiments were repeated at least twice with the same concentrations to determine growth inhibitory activity.
(§3) The CI, a numerical value calculated as described in equation A, also provides a quantitative measure of the extent of drug interaction. A CI of less than, equal to, and more than 1 indicates synergy, additivity, and antagonism, respectively. CI=(CAx/ICx,A)+(CB,x/ICx,B) Equation A: Where CA,x and CB,x, are the concentrations of drug A and drug B used in combination to achieve x % drug effect. ICx,A and ICx,B are the concentrations for single agents to achieve the same effect.

The test system of data set [12] is HT-29. The experiment in a line: CellTiter-Blue growth inhibition, single agents and combinations, HT-29. Conditions: Homo sapiens, read-out: Mean IC50, single agent. Type of data set: cell-based. How it is done:
as §2
Cells were grown to 70% confluency, trypsinized, counted, and seeded in 96-well flat-bottom plates at a final concentration of 2.5×10^3−5×10^3 cells/well (Day 0). […] Viable cell numbers were quantified by the CellTiter-Blue® cell viability assay, which measures the conversion of the indicator dye (resazurin) to resorufin, an indicator of cell viability. Experiments were repeated at least twice with the same concentrations to determine growth inhibitory activity.
as §3
For orientation: The colour change of resazurin is a common sign of viable cells or microbes.

For data set [13], the system named is COLO-205. The experiment in a line: Tumor cell proliferation, single agents and combinations, COLO-205. Type of data set: cell-based, human. Conditions: Homo sapiens. As for the experimental part: (§4) The 3 cell lines were treated as follows:
(§5) Day 1: Cells were plated in 96-well flat bottom plates (VWR, Mississauga, ON, Canada) and allowed to adhere overnight.
(§6) All treated and control cells were, therefore, exposed to a 1% DMSO concentration plus the desired concentration of COTI-2.
as §3

In data set [14] the test system is HCT-15. The experiment in a line: Tumor cell proliferation, single agents and combinations, HCT-15. The data set is classed as cell-based. Conditions: Homo sapiens. How it is done: as §4, §5, §6, §3
Data set [15] has as its system SW620. The experiment in a line: Tumor cell proliferation, single agents and combinations, SW620. Type of data set: cell-based, human. Conditions: Homo sapiens. As for the experimental part: as §4, §5, §6, §3
The subject of data set [16] is U87. The experiment in a line: IC50 human glioma/astrocytoma cell lines (alamar Blue), U87. Conditions: Homo sapiens, U-87 MG.
Description: (§7) Cell lines were obtained from the Human Tissue Culture Collection (ATCC), grown and maintained under ATCC-specified conditions, and tested to ensure viability and lack of contaminating mycoplasma and common viruses. […] A viability stain (alamar Blue) was added to cells after 4-7 days of drug exposure (approximately 4 doublings of control cells; maximum cell density in wells approximately 80%), and assayed for total cellular metabolic activity (a function of population density of live cells) by absorbance.
Data set [17] has as its system SNB-19. The experiment in a line: IC50 human glioma/astrocytoma cell lines (alamar Blue), SNB-19. Conditions: Homo sapiens, SNB-19.
Description: as §7
Data set [18] concerns SF-268. The experiment in a line: IC50 human glioma/astrocytoma cell lines (alamar Blue), SF-268.
Description: as §7
Data set [19] concerns SF-295. The experiment in a line: IC50 human glioma/astrocytoma cell lines (alamar Blue), SF-295.
Description: as §7

Like-named read-outs stand apart in the source and are kept apart here.

A word on the IC50: it is the concentration that gives 50% inhibition. For `S=C(N/N=C1/CCCc2cccnc21)N1CCN(c2ccccn2)CC1` [COTI-2], the “Actual outcome of in vitro testing” value in data set [1] was “Active”. Also, the IC50 in [2] was 156 nM; in data set [3], 73 nM; in data set [4], 221 nM; in data set [5], 101 nM; in [6], 121 nM; in data set [7] it was 176 nM. For the same compound, the concentration for half-maximal inhibition (IC50) in [8] was found to be 236 nM; in data set [11] (NCI-H1975, 72 h) it was 10 nM; in data set [12] (HT-29, 72 h) it was 200 nM; in [13] (COLO 205, read-out: Mean IC50, single agent), 4.7 nM; in data set [14] (HCT-15, read-out: Mean IC50, single agent) it was 8.3 nM; in [15] (SW-620, read-out: Mean IC50, single agent), 165 nM. The IC50 in [16] stood at 48 nM; in data set [17] it was 8 nM; in [18], 66 nM; in data set [19] it was 184 nM. Besides, the “emerging resistance: ratio of IC50 to IC50 of parental generation” value in [9] was “less than 1”. In data set [10], the “acute toxicity / adverse effects” value is given as “No evidence of acute toxicity”. The weight loss result in data set [10] is “None of the drugs produced any weight loss”.
Turning to `CN1CCN(C(=S)NN=C2c3ncccc3-c3cccnc32)CC1` [COTI-219], the “Actual outcome of in vitro testing” value in data set [1] is given as “Active”. In addition, the IC50 came out at 787 nM in [2]; 233 nM in data set [3]; 367 nM in data set [4]; 421 nM in data set [5]; 403 nM in data set [6]; 222 nM in data set [7]. Besides, the IC50 in [8] was 374 nM; in [11] (NCI-H1975, H1975, NSCLC, EGFR - MUT, 72 h) it was 100 nM; in data set [12] (HT-29, Colon, KRAS - WT, 72 h), 7.4 nM; in [13] (COLO-205, Colon, KRAS - WT, read-out: Mean IC50, single agent) it was 4.3 nM; in data set [14] (HCT-15, Colon, KRAS - MUT, read-out: Mean IC50, single agent) it was 5.1 nM; in data set [15] (SW-620, SW620, Colon, KRAS - MUT, read-out: Mean IC50, single agent), 7.4 nM. The IC50 in data set [16] is 2370 nM; in data set [17] it was 1990 nM; in [18], 1170 nM; in [19] it was 2390 nM. In addition, the “emerging resistance: ratio of IC50 to IC50 of parental generation” value in data set [9] is recorded as “little to no emerging resistance”. In data set [10], the “acute toxicity / adverse effects” value is given as “No evidence of acute toxicity”. For the same compound, in data set [10], the weight loss result is “None of the drugs produced any weight loss”.

The values above are taken from patent US8138191B2, “Inhibitor compounds and cancer treatment methods” (Critical Outcome Technologies Inc., priority 2007, dated 2012).
